Data reported in PubChem BioAssay AID330 (DTP/NCI, 2004).
Where “and” joins values, the source holds several entries; their conditions need not be identical. Identical values can stand only once. Toxic doses and inconclusive results are not listed. The calls were made as follows: active = survival T/C of 150% or more; inactive = T/C below 125% in these data.

System: P388 leukemia ip, CD2F1 mice, survival T/C
Assay: NCI In Vivo Anticancer Drug Screen. Data for tumor model P388 Leukemia (intraperitoneal) in CD2F1 (CDF1) mice
Conditions: endpoint: median survival time, higher = longer survival
Summary of the method: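 Mice carrying the transplanted tumor received test compound or vehicle. Survival was recorded in each group, and the value is the treated-group measurement divided by that of the vehicle-treated control group.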

[1] = dose: 50.0 mg/kg/injection, schedule: Q01DX005 (ip), vehicle: saline with Tween-80
[2] = dose: 100.0 mg/kg/injection, schedule: Q01DX005 (ip), vehicle: saline with Tween-80
[3] = dose: 200.0 mg/kg/injection, schedule: Q01DX005 (ip), vehicle: saline with Tween-80
[4] = dose: 12.5 mg/kg/injection, schedule: Q01DX009 (ip), vehicle: saline with Tween-80
[5] = dose: 25.0 mg/kg/injection, schedule: Q01DX009 (ip), vehicle: saline with Tween-80
[6] = dose: 50.0 mg/kg/injection, schedule: Q01DX009 (ip), vehicle: saline with Tween-80
[7] = dose: 1.56 mg/kg/injection, schedule: Q01DX005 (ip), vehicle: Klucel (hydroxypropylcellulose) (HPC)
[8] = dose: 3.12 mg/kg/injection, schedule: Q01DX005 (ip), vehicle: Klucel (hydroxypropylcellulose) (HPC)
[9] = dose: 6.25 mg/kg/injection, schedule: Q01DX005 (ip), vehicle: Klucel (hydroxypropylcellulose) (HPC)
[10] = dose: 6.25 mg/kg/injection, schedule: Q01DX005 (ip), vehicle: saline
[11] = dose: 12.5 mg/kg/injection, schedule: Q01DX005 (ip), vehicle: Klucel (hydroxypropylcellulose) (HPC)
[12] = dose: 50.0 mg/kg/injection, schedule: Q01DX005 (ip), vehicle: Klucel (hydroxypropylcellulose) (HPC)
[13] = dose: 100.0 mg/kg/injection, schedule: Q01DX005 (ip), vehicle: Klucel (hydroxypropylcellulose) (HPC)
[14] = dose: 200.0 mg/kg/injection, schedule: Q01DX005 (ip), vehicle: Klucel (hydroxypropylcellulose) (HPC)
[15] = dose: 50.0 mg/kg/injection, schedule: Q01DX005 (ip), vehicle: saline
[16] = dose: 100.0 mg/kg/injection, schedule: Q01DX005 (ip), vehicle: saline
[17] = dose: 200.0 mg/kg/injection, schedule: Q01DX005 (ip), vehicle: saline

Measured: T/C

COC(=O)C1Cc2cncn2C(=O)N1 (configuration not stated)
inactive: dose: 8.0 mg/kg/injection, schedule: Q01DX009 (ip), vehicle: water 108 % of control | dose: 16.0 mg/kg/injection, schedule: Q01DX009 (ip), vehicle: water 100 % of control | dose: 32.0 mg/kg/injection, schedule: Q01DX009 (ip), vehicle: water 103 % of control | dose: 64.0 mg/kg/injection, schedule: Q01DX009 (ip), vehicle: water 107 % of control

COc1ccc2c(c1O)C1=CC=CCC13CCN(C)C3C2 (configuration not stated)
inactive: dose: 100.0 mg/kg/injection, schedule: Q04DX002 (ip), vehicle: saline with Tween-80 103 % of control | dose: 200.0 mg/kg/injection, schedule: Q04DX002 (ip), vehicle: saline with Tween-80 105 % of control | dose: 400.0 mg/kg/injection, schedule: Q04DX002 (ip), vehicle: saline with Tween-80 108 % of control

CC(=O)NC1=NN(C(C)=O)C(C)(c2ccccc2)S1=O (configuration not stated)
inactive: [1] 103 % of control | [2] 107 % of control | [3] 101 % of control

O=C1C(Cl)=C(c2ccccc2)C(=O)C(Cl)=C1c1ccccc1
inactive: [4] 100 % of control | [5] 109 % of control | [6] 109 % of control

Cc1cc[c]([Sn]([Cl])([O][Sn]([Cl])([c]2ccc(C)cc2)[c]2ccc(C)cc2)[c]2ccc(C)cc2)cc1
inactive: [7] 105 % of control | [8] 96 % of control | dose: 3.12 mg/kg/injection, schedule: Q01DX005 (ip), vehicle: saline 115 % of control | [9] 94 % of control | [10] 118 % of control | [11] 99 % of control

CCCCCCC(=O)/C=C/c1ccc(OC(=O)c2ccc(Br)cc2)cc1
inactive: [4] 104 % of control | [5] 96 % of control | [6] 96 % of control

C=C1C[C@](OC)([C@H](O)C(=O)N[C@@H](OC)[C@@H]2C[C@@H](O)C(C)(C)[C@@H](C[C@@H](COC)OC)O2)O[C@H](C)[C@@H]1C
active: dose: 6.2 micrograms/kg/injection, schedule: Q01DX005 (ip), vehicle: Klucel (hydroxypropylcellulose) (HPC) 153 % of control | dose: 12.5 micrograms/kg/injection, schedule: Q01DX005 (ip), vehicle: Klucel (hydroxypropylcellulose) (HPC) 152 % of control | dose: 25.0 micrograms/kg/injection, schedule: Q01DX005 (ip), vehicle: Klucel (hydroxypropylcellulose) (HPC) 161 % of control and 162 % of control | dose: 50.0 micrograms/kg/injection, schedule: Q01DX005 (ip), vehicle: Klucel (hydroxypropylcellulose) (HPC) 152 % of control

[Cl][Sn]([CH2]C[CH2][Sn]([Cl])([c]1ccccc1)[c]1ccccc1)([c]1ccccc1)[c]1ccccc1
inactive: [8] 99 % of control | [9] 99 % of control | [11] 98 % of control

CC(C)=NOc1ccccc1[N+](=O)[O-]
inactive: [6] 111 % of control | dose: 100.0 mg/kg/injection, schedule: Q01DX009 (ip), vehicle: saline with Tween-80 101 % of control | dose: 200.0 mg/kg/injection, schedule: Q01DX009 (ip), vehicle: saline with Tween-80 93 % of control

FC(F)(F)C1(C(F)(F)F)O[P+](c2ccccc2)(c2ccccc2)c2ccccc21
inactive: [12] 100 % of control | [13] 110 % of control | [14] 102 % of control

CN(C)/[N+]([O-])=N/N1C(=O)c2ccccc2C1=O
inactive: [12] 101 % of control | [13] 105 % of control | [14] 101 % of control

COCCOC(=O)C1=C(O)c2ccccc2S(=O)(=O)N1C
inactive: dose: 60.0 mg/kg/injection, schedule: Q01DX005 (ip), vehicle: Klucel (hydroxypropylcellulose) (HPC) 106 % of control | dose: 120.0 mg/kg/injection, schedule: Q01DX005 (ip), vehicle: Klucel (hydroxypropylcellulose) (HPC) 109 % of control | dose: 240.0 mg/kg/injection, schedule: Q01DX005 (ip), vehicle: Klucel (hydroxypropylcellulose) (HPC) 120 % of control

CC1=C(C2CO2)C(=O)c2ccccc2C1=O (configuration not stated)
inactive: [7] 104 % of control and 107 % of control | [8] 103 % of control and 104 % of control | [9] 99 % of control and 100 % of control and 94 % of control

CC(=O)NC(Cn1cc(C(N)=O)ccc1=N)C(=O)O (configuration not stated)
inactive: [7] 102 % of control | [8] 108 % of control and 114 % of control | [9] 115 % of control and 122 % of control | [11] 121 % of control

c1ccc2c3c(ccc2c1)OCN(C12CC4CC(CC(C4)C1)C2)C3
inactive: dose: 100.0 mg/kg/injection, schedule: Q04DX003 (ip), vehicle: saline with Tween-80 100 % of control | dose: 200.0 mg/kg/injection, schedule: Q04DX003 (ip), vehicle: saline with Tween-80 110 % of control | dose: 400.0 mg/kg/injection, schedule: Q04DX003 (ip), vehicle: saline with Tween-80 110 % of control

COc1ccc(CCNC2=C(/C=C\C(=O)O)C(=O)CC2)cc1OC
inactive: dose: 25.0 mg/kg/injection, schedule: Q01DX001 (ip), vehicle: Klucel (hydroxypropylcellulose) (HPC) 95 % of control | dose: 50.0 mg/kg/injection, schedule: Q01DX001 (ip), vehicle: Klucel (hydroxypropylcellulose) (HPC) 100 % of control | dose: 100.0 mg/kg/injection, schedule: Q01DX001 (ip), vehicle: Klucel (hydroxypropylcellulose) (HPC) 87 % of control and 92 % of control

COC(=O)c1n[nH]n(Cc2ccccc2)c1=O (tested in a mixture with another compound)
inactive: [12] 103 % of control | [13] 92 % of control | [14] 92 % of control

CCOC(=O)/N=C1/CCCC(=O)C1O (configuration not stated)
inactive: dose: 25.0 mg/kg/injection, schedule: Q01DX005 (ip), vehicle: Klucel (hydroxypropylcellulose) (HPC) 102 % of control | [12] 103 % of control | [13] 93 % of control | [14] 101 % of control

CNC(=O)OCc1c(-c2ccccc2)c(-c2ccccc2)n(C)c1COC(=O)NC
active: dose: 12.5 mg/kg/injection, schedule: Q01DX009 (ip), vehicle: distilled water + Tween-80 154 % of control and 164 % of control | dose: 25.0 mg/kg/injection, schedule: Q01DX009 (ip), vehicle: distilled water + Tween-80 160 % of control and 174 % of control | dose: 50.0 mg/kg/injection, schedule: Q01DX009 (ip), vehicle: distilled water + Tween-80 165 % of control and 171 % of control
inactive: dose: 1.56 mg/kg/injection, schedule: Q01DX009 (ip), vehicle: distilled water + Tween-80 102 % of control

C[n+]1ccc(C#N)c2ccccc21
inactive: dose: 3.75 mg/kg/injection, schedule: Q01DX009 (ip), vehicle: saline with Tween-80 95 % of control | dose: 7.5 mg/kg/injection, schedule: Q01DX009 (ip), vehicle: saline with Tween-80 109 % of control | dose: 15.0 mg/kg/injection, schedule: Q01DX009 (ip), vehicle: saline with Tween-80 118 % of control

C=[CH][Sn]([CH]=C)([CH2]C)[CH2]C
inactive: [15] 102 % of control | [16] 104 % of control | [17] 114 % of control

CCN(CC)CCN1CC(=O)N2CCCCN2C(=O)C1
inactive: [15] 104 % of control | [16] 102 % of control | [17] 95 % of control

COC1=C(OC)S[C@H]2C3CC([C@H]2S1)[C@@H]1SC(OC)=C(OC)S[C@H]31
inactive: [12] 97 % of control | [13] 97 % of control | [14] 98 % of control

C[S+](C)CCCNC(=O)c1csc(-c2csc(-c3cscn3)n2)n1
inactive: [10] 104 % of control | dose: 12.5 mg/kg/injection, schedule: Q01DX005 (ip), vehicle: saline 96 % of control

O=C1/C(=C/c2ccccc2)CSC/C1=C\c1ccccc1
inactive: [12] 91 % of control | [13] 86 % of control

CC1CCCN2C(=O)CN(C3CCCCC3)CC(=O)N12 (configuration not stated)
inactive: [1] 100 % of control | [2] 100 % of control | [3] 100 % of control

CCOC(=O)c1cc(OC(C)=O)c2c(ccc3ccccc32)c1C
inactive: dose: 100.0 mg/kg/injection, schedule: Q01DX009 (ip), vehicle: Klucel (hydroxypropylcellulose) (HPC) 95 % of control | dose: 200.0 mg/kg/injection, schedule: Q01DX009 (ip), vehicle: Klucel (hydroxypropylcellulose) (HPC) 90 % of control | dose: 400.0 mg/kg/injection, schedule: Q01DX009 (ip), vehicle: Klucel (hydroxypropylcellulose) (HPC) 95 % of control

CCCCCCCCC(=O)N1SC(NC(=O)OC)=Nc2ccccc21
inactive: dose: 50.0 mg/kg/injection, schedule: Q01DX005 (ip), vehicle: acetone 98 % of control | dose: 100.0 mg/kg/injection, schedule: Q01DX005 (ip), vehicle: acetone 93 % of control | dose: 200.0 mg/kg/injection, schedule: Q01DX005 (ip), vehicle: acetone 111 % of control

C=CC1CN2CCC1CC2C(O)c1ccnc2ccccc12 (configuration not stated)
inactive: dose: 60.0 mg/kg/injection, schedule: Q01DX005 (ip), vehicle: saline 98 % of control | dose: 120.0 mg/kg/injection, schedule: Q01DX005 (ip), vehicle: saline 98 % of control
